Source: patent US8815569B2, “Methods for preserving and/or storing cells having a nitrilase or nitrile hydratase activity” (priority 2003, dated 2014)

Target: T1, E. coli-expressed nitrilase (Alcaligenes faecalis, UniProt P20960)
T1 construct: expressed in transfected cells; host or cells: Escherichia coli TG10 (pDHE1650 pAgro4 pHSG575), whole-cell suspension
Assay: Nitrilase activity test of the cell suspension after storage with aldehyde
Format: cell-based, Escherichia coli
Experimental: The Escherichia coli strain (TG10 pDHE1650 pAgro4 pHSG575) was fermented in a 20 l bioreactor. The reactor, containing a 10 l working volume, was inoculated with 200 ml of preliminary culture from shaker flasks. The preliminary culture medium corresponds to the main culture medium.
The fermentation is carried out at a temperature of 37° C. The gassing is regulated between 8-30 l/min, while the rotation speed of the stirrer is regulated at […], in order to maintain a pO2 of not less than 20%. After a fermentation period of 1 h, the culture is induced with IPTG (0.15 mM). 18.5 g of rhamnose feed solution are then added. After the initially introduced quantity of glycerol has been consumed, glycerol is then fed in continuously. After a fermentation period of 44 h, cell suspensions of 50 g DBM/l and 50 to 60 ku/l are obtained. The cells are cooled down to 4° C.
50 μl of cell suspension are pipetted into 880 μl of sodium potassium phosphate buffer (10 mM) and the whole is equilibrated at 30° C. The reaction is started by adding 20 μl of methanolic mandelonitrile solution (12%). After 10 min, the enzyme reaction is stopped by adding 50 μl of 1M HC. The cell mass is centrifuged off and the concentration of mandelic acid in the supernatant is measured by means of HPLC (ODS Hypersil 100*2.0 mm, mobile phase: 75% H3PO4 (14.8 mM)/25% methanol; flow rate: 0.5 ml/min; injection volume: 2 μl; column temperature: 40° C.; detection: 210 nm; mandelic acid retention time: 0.9 min).
(§1) 14 h after the end of the fermentation, the cell suspension was adjusted to a pH of 6.0, 6.6 or 7.2 with NaOH or H2SO4 and then treated with benzaldehyde. The samples were stored at 4° C. or 22° C. Enzyme activity was determined at 0.6, 3.6 and 6.6 days after the end of the fermentation.
as §1, with “6.0, 6.6.” for “6.0, 6.6”, “with 2-chlorobenzaldehyde.” for “with benzaldehyde.”, “C. The enzyme” for “C. Enzyme”

[1] = storage at 4° C., pH 6.0, 1 mM aldehyde, storage period 0.6 d
[2] = storage at 4° C., pH 6.0, 1 mM aldehyde, storage period 3.6 d
[3] = storage at 4° C., pH 6.0, 1 mM aldehyde, storage period 6.6 d
[4] = storage at 4° C., pH 6.0, 5 mM aldehyde, storage period 0.6 d
[5] = storage at 4° C., pH 6.0, 5 mM aldehyde, storage period 3.6 d
[6] = storage at 4° C., pH 6.0, 5 mM aldehyde, storage period 6.6 d
[7] = storage at 4° C., pH 6.0, 10 mM aldehyde, storage period 0.6 d
[8] = storage at 4° C., pH 6.0, 10 mM aldehyde, storage period 3.6 d
[9] = storage at 4° C., pH 6.0, 10 mM aldehyde, storage period 6.6 d
[10] = storage at 4° C., pH 6.6, 1 mM aldehyde, storage period 0.6 d
[11] = storage at 4° C., pH 6.6, 1 mM aldehyde, storage period 3.6 d
[12] = storage at 4° C., pH 6.6, 1 mM aldehyde, storage period 6.6 d
[13] = storage at 4° C., pH 6.6, 5 mM aldehyde, storage period 0.6 d
[14] = storage at 4° C., pH 6.6, 5 mM aldehyde, storage period 3.6 d
[15] = storage at 4° C., pH 6.6, 5 mM aldehyde, storage period 6.6 d
[16] = storage at 4° C., pH 6.6, 10 mM aldehyde, storage period 0.6 d
[17] = storage at 4° C., pH 6.6, 10 mM aldehyde, storage period 3.6 d
[18] = storage at 4° C., pH 6.6, 10 mM aldehyde, storage period 6.6 d
[19] = storage at 4° C., pH 7.2, 1 mM aldehyde, storage period 0.6 d
[20] = storage at 4° C., pH 7.2, 1 mM aldehyde, storage period 3.6 d
[21] = storage at 4° C., pH 7.2, 1 mM aldehyde, storage period 6.6 d
[22] = storage at 4° C., pH 7.2, 5 mM aldehyde, storage period 0.6 d
[23] = storage at 4° C., pH 7.2, 5 mM aldehyde, storage period 3.6 d
[24] = storage at 4° C., pH 7.2, 5 mM aldehyde, storage period 6.6 d
[25] = storage at 4° C., pH 7.2, 10 mM aldehyde, storage period 0.6 d
[26] = storage at 4° C., pH 7.2, 10 mM aldehyde, storage period 3.6 d
[27] = storage at 4° C., pH 7.2, 10 mM aldehyde, storage period 6.6 d
[28] = storage at 22° C., pH 6.0, 1 mM aldehyde, storage period 0.6 d
[29] = storage at 22° C., pH 6.0, 1 mM aldehyde, storage period 3.6 d
[30] = storage at 22° C., pH 6.0, 1 mM aldehyde, storage period 6.6 d
[31] = storage at 22° C., pH 6.0, 5 mM aldehyde, storage period 0.6 d
[32] = storage at 22° C., pH 6.0, 5 mM aldehyde, storage period 3.6 d
[33] = storage at 22° C., pH 6.0, 5 mM aldehyde, storage period 6.6 d
[34] = storage at 22° C., pH 6.0, 10 mM aldehyde, storage period 0.6 d
[35] = storage at 22° C., pH 6.0, 10 mM aldehyde, storage period 3.6 d
[36] = storage at 22° C., pH 6.0, 10 mM aldehyde, storage period 6.6 d
[37] = storage at 22° C., pH 6.6, 1 mM aldehyde, storage period 0.6 d
[38] = storage at 22° C., pH 6.6, 1 mM aldehyde, storage period 3.6 d
[39] = storage at 22° C., pH 6.6, 1 mM aldehyde, storage period 6.6 d
[40] = storage at 22° C., pH 6.6, 5 mM aldehyde, storage period 0.6 d
[41] = storage at 22° C., pH 6.6, 5 mM aldehyde, storage period 3.6 d
[42] = storage at 22° C., pH 6.6, 5 mM aldehyde, storage period 6.6 d
[43] = storage at 22° C., pH 6.6, 10 mM aldehyde, storage period 0.6 d
[44] = storage at 22° C., pH 6.6, 10 mM aldehyde, storage period 3.6 d
[45] = storage at 22° C., pH 6.6, 10 mM aldehyde, storage period 6.6 d
[46] = storage at 22° C., pH 7.2, 1 mM aldehyde, storage period 0.6 d
[47] = storage at 22° C., pH 7.2, 1 mM aldehyde, storage period 3.6 d
[48] = storage at 22° C., pH 7.2, 1 mM aldehyde, storage period 6.6 d
[49] = storage at 22° C., pH 7.2, 5 mM aldehyde, storage period 0.6 d
[50] = storage at 22° C., pH 7.2, 5 mM aldehyde, storage period 3.6 d
[51] = storage at 22° C., pH 7.2, 5 mM aldehyde, storage period 6.6 d
[52] = storage at 22° C., pH 7.2, 10 mM aldehyde, storage period 0.6 d
[53] = storage at 22° C., pH 7.2, 10 mM aldehyde, storage period 3.6 d
[54] = storage at 22° C., pH 7.2, 10 mM aldehyde, storage period 6.6 d

T1 sequence (P20960 whole entry Q122E/S243P/E312D/I323T/Q324R/P330Q/H331G/T335K/A336I/P338S/V341I/Q343H/T344P): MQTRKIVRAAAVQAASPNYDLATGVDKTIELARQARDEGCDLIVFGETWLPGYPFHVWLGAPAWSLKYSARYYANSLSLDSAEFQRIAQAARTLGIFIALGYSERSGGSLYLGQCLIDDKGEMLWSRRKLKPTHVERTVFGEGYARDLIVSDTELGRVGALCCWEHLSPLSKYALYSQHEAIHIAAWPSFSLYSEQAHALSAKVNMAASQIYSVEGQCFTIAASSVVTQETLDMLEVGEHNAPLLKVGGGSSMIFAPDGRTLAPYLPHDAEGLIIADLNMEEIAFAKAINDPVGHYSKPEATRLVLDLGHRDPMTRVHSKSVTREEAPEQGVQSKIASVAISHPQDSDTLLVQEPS

O=Cc1ccccc1Cl [2-chlorobenzaldehyde]
Activity in kU/l [1]: 52.4 kU/l | Activity in kU/l [2]: 53.5 kU/l | Activity in kU/l [3]: 56.9 kU/l | Activity in kU/l [4]: 52.5 kU/l | Activity in kU/l [5]: 55.6 kU/l | Activity in kU/l [6]: 53.8 kU/l | Activity in kU/l [7]: 53.5 kU/l | Activity in kU/l [8]: 55.7 kU/l | Activity in kU/l [9]: 47.6 kU/l | Activity in kU/l [10]: 48.8 kU/l | Activity in kU/l [11]: 55.1 kU/l | Activity in kU/l [12]: 54.7 kU/l | Activity in kU/l [13]: 50.6 kU/l | Activity in kU/l [14]: 56.3 kU/l | Activity in kU/l [15]: 53.6 kU/l | Activity in kU/l [16]: 47.4 kU/l | Activity in kU/l [17]: 55.0 kU/l | Activity in kU/l [18]: 58.5 kU/l | Activity in kU/l [19]: 51.3 kU/l | Activity in kU/l [20]: 48.3 kU/l | Activity in kU/l [21]: 45.2 kU/l | Activity in kU/l [22]: 53.3 kU/l | Activity in kU/l [23]: 51.2 kU/l | Activity in kU/l [24]: 48.1 kU/l | Activity in kU/l [25]: 48.3 kU/l | Activity in kU/l [26]: 51.0 kU/l | Activity in kU/l [27]: 49.9 kU/l | Activity in kU/l [28]: 52.4 kU/l | Activity in kU/l [29]: 53.8 kU/l | Activity in kU/l [30]: 54.5 kU/l | Activity in kU/l [31]: 52.5 kU/l | Activity in kU/l [32]: 55.0 kU/l | Activity in kU/l [33]: 59.1 kU/l | Activity in kU/l [34]: 53.5 kU/l | Activity in kU/l [35]: 55.7 kU/l | Activity in kU/l [36]: 52.4 kU/l | Activity in kU/l [37]: 48.8 kU/l | Activity in kU/l [38]: 55.0 kU/l | Activity in kU/l [39]: 57.2 kU/l | Activity in kU/l [40]: 50.6 kU/l | Activity in kU/l [41]: 56.7 kU/l | Activity in kU/l [42]: 55.5 kU/l | Activity in kU/l [43]: 47.4 kU/l | Activity in kU/l [44]: 56.2 kU/l | Activity in kU/l [45]: 58.6 kU/l | Activity in kU/l [46]: 51.3 kU/l | Activity in kU/l [47]: 52.8 kU/l | Activity in kU/l [48]: 53.2 kU/l | Activity in kU/l [49]: 53.3 kU/l | Activity in kU/l [50]: 51.4 kU/l | Activity in kU/l [51]: 50.1 kU/l | Activity in kU/l [52]: 48.3 kU/l | Activity in kU/l [53]: 52.9 kU/l | Activity in kU/l [54]: 54.0 kU/l

O=Cc1ccccc1 [benzaldehyde]
Activity in kU/l [1]: 55.1 kU/l | Activity in kU/l [2]: 49.9 kU/l | Activity in kU/l [3]: 48.3 kU/l | Activity in kU/l [4]: 51.8 kU/l | Activity in kU/l [5]: 52.3 kU/l | Activity in kU/l [6]: 53.0 kU/l | Activity in kU/l [7]: 51.3 kU/l | Activity in kU/l [8]: 51.5 kU/l | Activity in kU/l [9]: 50.2 kU/l | Activity in kU/l [10]: 53.2 kU/l | Activity in kU/l [11]: 52.3 kU/l | Activity in kU/l [12]: 52.5 kU/l | Activity in kU/l [13]: 47.1 kU/l | Activity in kU/l [14]: 52.0 kU/l | Activity in kU/l [15]: 55.7 kU/l | Activity in kU/l [16]: 51.3 kU/l | Activity in kU/l [17]: 55.5 kU/l | Activity in kU/l [18]: 51.9 kU/l | Activity in kU/l [19]: 55.8 kU/l | Activity in kU/l [20]: 46.8 kU/l | Activity in kU/l [21]: 47.5 kU/l | Activity in kU/l [22]: 47.1 kU/l | Activity in kU/l [23]: 48.3 kU/l | Activity in kU/l [24]: 50.7 kU/l | Activity in kU/l [25]: 53.8 kU/l | Activity in kU/l [26]: 51.2 kU/l | Activity in kU/l [27]: 49.2 kU/l | Activity in kU/l [28]: 55.1 kU/l | Activity in kU/l [29]: 50.6 kU/l | Activity in kU/l [30]: 51.0 kU/l | Activity in kU/l [31]: 51.8 kU/l | Activity in kU/l [32]: 51.5 kU/l | Activity in kU/l [33]: 54.9 kU/l | Activity in kU/l [34]: 51.3 kU/l | Activity in kU/l [35]: 53.0 kU/l | Activity in kU/l [36]: 49.2 kU/l | Activity in kU/l [37]: 53.2 kU/l | Activity in kU/l [38]: 53.0 kU/l | Activity in kU/l [39]: 53.1 kU/l | Activity in kU/l [40]: 47.1 kU/l | Activity in kU/l [41]: 54.3 kU/l | Activity in kU/l [42]: 58.0 kU/l | Activity in kU/l [43]: 51.3 kU/l | Activity in kU/l [44]: 49.4 kU/l | Activity in kU/l [45]: 55.4 kU/l | Activity in kU/l [46]: 55.8 kU/l | Activity in kU/l [47]: 50.4 kU/l | Activity in kU/l [48]: 48.7 kU/l | Activity in kU/l [49]: 47.1 kU/l | Activity in kU/l [50]: 51.7 kU/l | Activity in kU/l [51]: 52.9 kU/l | Activity in kU/l [52]: 53.8 kU/l | Activity in kU/l [53]: 52.7 kU/l | Activity in kU/l [54]: 51.3 kU/l
